Results on four molecules are retold here after patent publication US20250101487A1, “SELF-DILUTING MICROFLUIDIC DEVICE FOR RAPID ANTIMICROBIAL SUSCEPTIBILITY TESTS” (The University of Hong Kong, priority 2023, published 2025).

The subject of assay [1] is K. pneumoniae. Briefly: SDFAST antimicrobial susceptibility test (WST-8 colorimetric). Format: cell-based. The conditions noted are these: Klebsiella pneumoniae, WST-8, 37° C., 6 hours. As for the experimental part:
(§1) SDFAST (Self Dilution for Faster Antimicrobial Susceptibility Testing) involved a relatively simple mechanism with three phases: loading, droplet formation, and mixing (FIG. 3A). In the loading phase, a bacteria sample with a colorimetric indicator (CCK-8, cell counting kit-8) was injected into the constant-volume channels, while the antibiotic solution is injected into the varied-volume channels. In the droplet formation phase, the upper chip was slipped, forming droplets. In the mixing phase, the bacteria sample was mixed with the antibiotic solution. […] The well before the abrupt color change represented the minimum inhibitory concentration (MIC) of the bacteria with the antibiotic.
(§2) The solutions were injected using a micropipette with 0.1-20 μL tips. For lines with constant volume, 20 μL solution was required to fill up one entire line, while for lines with varied volumes, 10 μL solution was required. The excess solution was expelled from the hole adjacent to the end side of each line and could be wiped with KimWipes. After filling the wells, the chips were slid so that the lower line aligned and overlapped with the upper line, allowing the solutions to mix. Subsequently, the chips were placed inside a Petri dish containing FC-40, and the dish was sealed with parafilm. The dish was then incubated at 37° C. for 6 hours before color analysis using ImageJ.
The bacteria were cultured on an agar plate and incubated in Mueller-Hinton Broth (MHB, Sigma-Aldrich) at 37° C. overnight. The culture solution was then diluted 1000 times with MHB and mixed with 5% WST-8 indicator (Beyotime). […]
In the present invention, the SDFAST was operated with the water-soluble tetrazolium salt-8 (WST-8) assay, in which four prevalent bacteria, Acinetobacter baumannii (A. baumannii), Escherichia coli (E. coli), Klebsiella pneumoniae (K. pneumoniae) and clinical samples containing Staphylococcus species were tested under various antibiotics. […] After the identification, the MIC value was calculated based on dilution rates.
For orientation: Formazan colour is commonly taken as a measure of viable cells.

Assay [2] deals with A. baumannii. The assay is described as above. The conditions noted are these: Acinetobacter baumannii, WST-8, 37° C., 6 hours. Format: cell-based. As for the experimental part: as §1, §2
(§3) The bacteria were cultured on an agar plate and incubated in Mueller-Hinton Broth (MHB, Sigma-Aldrich) at 37° C. overnight. The culture solution was then diluted 1000 times with MHB and mixed with 5% WST-8 indicator (Beyotime). The antibiotic solutions were prepared by dissolving the desired amount of antibiotics (solid or liquid) into DI water, and the solutions were diluted by DI water according to the desired concentrations to be tested.
(§4) In the present invention, the SDFAST was operated with the water-soluble tetrazolium salt-8 (WST-8) assay, in which four prevalent bacteria, Acinetobacter baumannii (A. baumannii), Escherichia coli (E. coli), Klebsiella pneumoniae (K. pneumoniae) and clinical samples containing Staphylococcus species were tested under various antibiotics. […] The colourless or very pale yellow well before the abrupt change in each line represented the corresponding MIC, which could be easily identified by the naked eyes.

In assay [3] the test system is E. coli. The description is as above. Format: cell-based. The note with it: Escherichia coli, WST-8, 37° C., 6 hours. How it is done:
as §1, §2, §3, §4

The subject of assay [4] is A. baumannii. Briefly: Broth microdilution. It counts as cell-based. The note with it: Acinetobacter baumannii. As for the experimental part: (§5) Currently, AST is mostly commonly conducted by the broth microdilution method^3,4, in which the antibiotic solution of the desired concentration is prepared, injected into a microwell, and diluted serially from well to well. Afterward, an equal volume of bacteria solution is introduced to every microwell with antibiotics of varied concentrations, and the well-plate is incubated overnight. In the end, MIC is determined by observing and analyzing the turbidity of each well, and the well with the lowest concentration of antibiotic showing no turbidity represents the MIC^5. […] Another common yet less complex method is disc diffusion^7. In this technique, bacteria are initially cultured on Mueller-Hinton agar. Subsequently, antimicrobial discs are positioned on the agar plate, and the plate is left to incubate overnight. The diameters of inhibition zones, the regions where bacteria are being killed, are then measured, and these values are compared to reference standards to ascertain susceptibility. This method is used for qualitative determination of bacterial susceptibility, in which the bacteria are determined to be “resistant”, “intermediate,” or “susceptible” from the results. Despite its widespread use, this method has several drawbacks. […] Additionally, it is time-consuming, requiring 16 to 24 hours to produce results, and must be conducted in a laboratory^8,9. Consequently, an alternative approach that is portable, user-friendly, and time-efficient needs to be developed for rapid MIC determination.
(In general: Dilution methods test growth across graded concentrations, often in twofold steps.)

The subject of assay [5] is K. pneumoniae. As to the kind of experiment: Broth microdilution. Format: cell-based. The note with it: Klebsiella pneumoniae. How it is done:
as §5

Assay [6] deals with E. coli. Briefly: Broth microdilution. Format: cell-based. The note with it: Escherichia coli. How it is done: as §5
Assay [7] deals with S. aureus. The note with it: cited from earlier work.
The test system of assay [8] is S. capitis. The conditions noted are these: cited from earlier work.
In assay [9] the test system is S. caprae. The note with it: cited from earlier work.
In assay [10] the test system is S. caprae. As to the kind of experiment: SDFAST antimicrobial susceptibility test (WST-8), clinical Staphylococcus strains. Format: cell-based. How it is done:
as §1, §2
(§6) They were obtained from the Department of Microbiology, Queen Mary Hospital, Hong Kong (Patient samples). Vancomycin hydrochloride solution (100 mg/mL in DMSO, Sigma-Aldrich) was diluted with DI water to desired concentrations for each strain. The results were compared to those obtained by E-test from the Department of Microbiology.

Assay [11] has as its system S. capitis. Described as above. Format: cell-based. As for the experimental part:
as §1, §2, §6

Assay [12] deals with S. aureus. The assay is described as above. It counts as cell-based. As for the experimental part:
as §1, §2, §6

The subject of assay [13] is S. haemolyticus. Described as above. The conditions noted are these: S. haemolyticus 901622-2. Format: cell-based. As for the experimental part:
as §1, §2, §6

Assay [14] relates to S. haemolyticus. The note with it: S. haemolyticus 901622-2; cited from earlier work.

≈ marks a conversion by molar mass, not a printed value. Where two headings read alike, the source gives them in different places.

For orientation: MIC means the lowest concentration found to suppress growth.

For the molecule `CC(C)(O/N=C(\C(=O)N[C@@H]1C(=O)N2C(C(=O)[O-])=C(C[n+]3ccccc3)CS[C@H]12)c1csc(N)n1)C(=O)O` [CTZ, Ceftazidime], the MIC is 62.5 µg/mL (≈ 114 µM) with K. pneumoniae [1]; 62.5 µg/mL (≈ 114 µM) in the assay on A. baumannii [2]; 62.5 µg/mL (≈ 114 µM) with E. coli [3]; 62.5 to 125 µg/mL (≈ 114 to 229 µM) against A. baumannii [4]; 125 µg/mL (≈ 229 µM) with K. pneumoniae [5]; 62.5 µg/mL (≈ 114 µM) against E. coli [6].
As to `CN[C@H](CC(C)C)C(=O)N[C@H]1C(=O)N[C@@H](CC(N)=O)C(=O)N[C@H]2C(=O)N[C@H]3C(=O)N[C@H](C(=O)N[C@H](C(=O)O)c4cc(O)cc(O)c4-c4cc3ccc4O)[C@H](O)c3ccc(c(Cl)c3)Oc3cc2cc(c3O[C@@H]2O[C@H](CO)[C@@H](O)[C@H](O)[C@H]2O[C@H]2C[C@](C)(N)[C@H](O)[C@H](C)O2)Oc2ccc(cc2Cl)[C@H]1O` [Vancomycin], the “MIC, E-test (reference value)” value is 1 µg/mL (≈ 0.69 µM) with S. aureus [7] (S. aureus 900967); 1 µg/mL (≈ 0.69 µM) with S. aureus [7] (S. aureus 901089); 0.5 µg/mL (≈ 0.345 µM) in the assay on S. aureus [7] (S. aureus 901763); 0.75 µg/mL (≈ 0.518 µM) in the assay on S. aureus [7] (S. aureus 902126); 0.5 µg/mL (≈ 0.345 µM) in the assay on S. aureus [7] (S. aureus 902154); 0.5 µg/mL (≈ 0.345 µM) in the assay with S. aureus [7] (S. aureus 902395). The “MIC, E-test (reference value)” value in the assay with S. aureus [7] (S. aureus 903245) was 0.75 µg/mL (≈ 0.518 µM); in the assay on S. aureus [7] (S. aureus 932674), 0.75 µg/mL (≈ 0.518 µM); in the assay with S. capitis [8] (S. capitis 901820-1), 1 µg/mL (≈ 0.69 µM); with S. capitis [8] (S. capitis 902278-2) it was 1 µg/mL (≈ 0.69 µM); in the assay with S. capitis [8] (S. capitis 902530-2) it was 0.5 µg/mL (≈ 0.345 µM); with S. caprae [9] (S. caprae 901820-2), 1.5 µg/mL (≈ 1.04 µM). For the same molecule, the “MIC, E-test (reference value)” value is 0.19 µg/mL (≈ 0.131 µM) in the assay on S. caprae [9] (S. caprae 902278-1), 0.5 µg/mL (≈ 0.345 µM) in the assay on S. caprae [9] (S. caprae 903211), 1 µg/mL (≈ 0.69 µM) in the assay on S. caprae [9] (S. caprae 903522) and 1.5 µg/mL (≈ 1.04 µM) in the assay on S. haemolyticus [14]. Also, the MIC came out at 1.56 µg/mL (≈ 1.08 µM) with S. caprae [10] (S. caprae 901820-2); 0.195 µg/mL (≈ 0.135 µM) against S. caprae [10] (S. caprae 902278-1); 0.5 µg/mL (≈ 0.345 µM) with S. caprae [10] (S. caprae 903211); 1.11 µg/mL (≈ 0.766 µM) against S. caprae [10] (S. caprae 903522); 1 µg/mL (≈ 0.69 µM) against S. capitis [11] (S. capitis 901820-1); 1 µg/mL (≈ 0.69 µM) against S. capitis [11] (S. capitis 902278-2). Moreover, the MIC against S. capitis [11] (S. capitis 902530-2) is 0.55 µg/mL (≈ 0.38 µM); in the assay on S. aureus [12] (S. aureus 900967), 1 µg/mL (≈ 0.69 µM); with S. aureus [12] (S. aureus 901089) it was 1 µg/mL (≈ 0.69 µM); in the assay with S. aureus [12] (S. aureus 901763), 0.5 µg/mL (≈ 0.345 µM); in the assay on S. aureus [12] (S. aureus 902126), 0.77 to 1.4 µg/mL (≈ 0.531 to 0.966 µM); against S. aureus [12] (S. aureus 902154), 0.94 µg/mL (≈ 0.649 µM). In addition, the MIC in the assay on S. aureus [12] (S. aureus 902395) is 0.5 µg/mL (≈ 0.345 µM); in the assay on S. aureus [12] (S. aureus 903245) it was 1.4 µg/mL (≈ 0.966 µM); against S. aureus [12] (S. aureus 932674), 0.77 to 1.4 µg/mL (≈ 0.531 to 0.966 µM); against S. haemolyticus [13], 1.56 µg/mL (≈ 1.08 µM).
In the case of `C[C@H]1COc2c(N3CCN(C)CC3)c(F)cc3c(=O)c(C(=O)O)cn1c23` [LEV, Levofloxacin], the MIC with K. pneumoniae [1] was determined as 50 µg/mL (≈ 138 µM); in the assay with A. baumannii [2] it was 100 µg/mL (≈ 277 µM); in the assay with E. coli [3], 12.5 µg/mL (≈ 34.6 µM); against A. baumannii [4], 100 µg/mL (≈ 277 µM); in the assay with K. pneumoniae [5], 50 µg/mL (≈ 138 µM); with E. coli [6] it was 12.5 µg/mL (≈ 34.6 µM).
The molecule `O=C(O)c1cn(C2CC2)c2cc(N3CCNCC3)c(F)cc2c1=O` [CIP, Ciprofloxacin] returned an MIC in the assay on K. pneumoniae [1] of 6.25 µg/mL (≈ 18.9 µM).
